“Also recorded” adds a separate entry of the source.
Tests used:
LDHA [1] = molecular target: T1, LDHA (Homo sapiens, UniProt P00338); test: Affinity chromatography of LDHA on Sepharose-immobilized FX11 or E; assay type: binding; conditions: P493 cell lysate; elution with 1 mM NADH
Procedure: FX11 and E molecules which contain carboxyl groups were coupled to immobilized diaminodipropylamine (DADPA) resins according to the manufacturer's instructions (Pierce). […] An equal amount of cell lysate was loaded onto these beads and eluted with 1 mM NADH after washing with 6 column volumes of high salt (1 M NaCl). LDHA activity was performed from the eluates to assess the binding affinity of the molecules with LDHA.

P493 cells [2] = test: Annexin V / 7-AAD cell death assay; assay type: cell-based, human; conditions: 24 hours of FX11 treatment
P493 cells [3] = test: ATP levels, luciferin-luciferase-based assay; assay type: cell-based, human; conditions: 9 μM FX11 or 0.5 nM FK866, 20 hours
Procedure: P493 cells were treated with 9 μM FX11 or 0.5 nM FK866 for 20 hours and counted. ATP levels were determined by luciferin-luciferase-based assay (Promega) on aliquots containing equal number of cells according to standard protocol.

AMP kinase (AMPK) = test: Immunoblot of phospho-AMPK; assay type: cell-based, human; conditions: 20 hours of exposure
P493 cells [4] = test: NADH/NAD+ ratio colorimetric assay; assay type: cell-based, human; conditions: 9 μM FX11, 24 hours
Procedure: The NADH/NAD^+ ratios were assayed using EnzyChrom™ NADH/NAD^+ colorimetric Assay Kit, from BioAssay Systems. This assay is based on an enzyme-catalyzed kinetic reaction where a tetrazolium dye 3-[4,5-dimethylthiazol-2-yl]-2,5-diphenyltetrazolium bromide (MTT) is reduced by NADH in the presence of phenazine methosulfate (PMS). The intensity of the reduced product color, measured at 565 nm, is proportionate to the NADH/NAD^+ concentration in the sample. […] After washing with cold PBS, cells were homogenized in 100 μl of NAD^+ or NADH extraction buffer. Following heat extract at 60° C. for 5 minutes, the assay was performed according to the manufacturer's instructions.

P493 cells [5] = test: Conversion of 13C-glucose to 13C-lactate; assay type: cell-based, human
Procedure: In addition to oxidative stress induced by inhibition of LDHA, it was determined how FX11 affects cellular energy metabolism. […].

c-Myc = test: Western blot of c-Myc; assay type: cell-based, human; conditions: 30 μM FX11, 24 hours
MCF-7 cells = test: Cell population growth; assay type: cell-based, human; conditions: dose-response
Procedure: (§1) P493 human lymphoma B cells were maintained in RPMI 1640 with 10% fetal bovine serum (FBS) and 1% penicillin-streptomycin. P198 human pancreatic cancer cells; RCC4, RCC4-VHL human renal carcinoma cells; MCF-7 and MDA-MB-453 breast cancer cells were maintained in high glucose (4.5 mg/ml) DMEM with 10% FBS and 1% penicillin-streptomycin. Non-hypoxic cells (20% O2) were maintained at 37° C. in a 5% CO2, 95% in an air incubator. Hypoxic cells (1% O2) were maintained in a controlled atmosphere chamber (PLAS-LABS, Lansing, Mich.) with a gas mixture containing 1% O2, 5% CO2, and 94% N2 at 37° C. for the indicated time. Bright live cells were counted daily in a hemacytometer using trypan blue dye to exclude dead cells. All cells were grown at a concentration of 10^5 cells/ml. All drugs treatment began at day 0.

MDA-MB-453 cells = test: Cell population growth; assay type: cell-based, human; conditions: dose-response
Procedure: as §1

RCC4 cells = test: Cell population growth; assay type: cell-based, human; conditions: dose-response
Procedure: as §1

RCC4-VHL cells = test: Cell population growth; assay type: cell-based, human; conditions: dose-response
Procedure: as §1

[6] = tested on: Ramos Burkitt lymphoma cells; test: Cell population growth; assay type: cell-based, human
[7] = tested on: human pancreatic cell line E3LZ10.7; test: Cell growth; assay type: cell-based
[8] = tested on: human glioblastoma U-87-MG cells; test: Cell growth; assay type: cell-based
[9] = Expected initial serum level after IP injection; assay type: in vivo; conditions: 42 μg IP; assuming uniform and immediate distribution in the vascular system
Procedure: (§2) Although the renewed interest in the Warburg effect is accompanied by a greater understanding of its molecular underpinnings, targeting it for therapeutic purposes has become a major challenge. […] Of note, primary human lymphomas have been documented to have elevated LDHA expression particularly in hypoxic regions. […] A desired FX11 dose of 42 μg for daily intraperitoneal (IP) injection was calculated. An initial serum level of ˜100 μM was expected, assuming a uniform and immediate distribution in the vascular system without accounting for the drug half-life or drug metabolism.

[10] = Solubility in aqueous solution; assay type: physicochemical; conditions: relative to the 42 μg dose
Procedure: as §2

LDHA [11] = molecular target: T1, LDHA; conditions: cited from earlier work
[12] = molecular target: purified human liver LDHA (Homo sapiens, UniProt P00338); test: Determination of Ki and enzyme kinetics of LDHA; conditions: NADH as substrate; Lineweaver-Burk plots
Procedure: The reaction velocity of purified human LDHA or GAPDH was determined by a decrease or increase in absorbance at 340 nm of NADH, respectively. […] The GADPH activity was assessed using the protocol described in Worthington Enzyme Manual: http://www.worthington-biochem.com/GAPD/assay.html with varying concentrations of NAD^+. Ki values were determined from double-reciprocal plots by linear regression analysis using SigmaPlot Enzyme Kinetic software.

[13] = Side effects, hematology and blood chemistry in treated animals

SMILES: CCCc1c(O)c(O)c(C(=O)O)c2cc(Cc3ccccc3)c(C)cc12 [FX11, 2,3-dihydroxy-6-methyl-7-(phenylmethyl)-4-propylnaphthalene-1-carboxylic acid]
- LDHA activity eluted from affinity beads relative to beads with immobilized E (LDHA [1]): 4 fold
- cell death (7-AAD and annexin V labeling) (P493 cells [2]): increased
- ATP levels (P493 cells [3]): decrease in ATP levels
- AMP kinase (AMPK) activation (AMP kinase (AMPK)): activation
- NADH/NAD+ ratio (P493 cells [4]): increase
- 13C-glutamate (P493 cells [5]): increase
- conversion of 13C-glucose to 13C-lactate (P493 cells [5]): reduced
- c-Myc levels (c-Myc): does not affect c-Myc levels
- cell population growth / sensitivity (MCF-7 cells): inhibited cell population growth; also recorded: more sensitive
- cell population growth (MDA-MB-453 cells): inhibited cell population growth
- cell population growth / sensitivity (RCC4 cells): inhibited cell population growth; also recorded: more sensitive
- cell population growth (RCC4-VHL cells): inhibited cell population growth
- cell population growth inhibition [6]: sensitive to FX11 inhibition in a manner that is diminished by glucose withdrawal; also recorded: dose-dependent manner
- growth inhibition [7]: dose-dependent manner
- growth inhibition [8]: dose-dependent manner
- initial serum level [9]: ~100 µM
- solubility limit in aqueous solution [10]: dose could only be doubled before the limit of FX11 in aqueous solution was reached
- selectivity LDHA versus LDHB or pLDH (LDHA [11]): preferentially inhibited LDHA as opposed to LDHB or pLDH
- mode of inhibition of LDHA [12]: competitive inhibitors; also recorded: competitive inhibitor of NADH
- kidney (BUN, creatinine) or liver (aspartate aminotransferase, alanine aminotransferase, alkaline phosphatase) toxicity by blood chemistries ([13]; doses that affected tumor growth in vivo): did not reveal any evidence
- hematology (cytopenia) ([13]; single agent, five animals studied): no cytopenia
- body weight ([13]; treated animals): did not lose weight
- lethargy, ability to eat and drink ([13]; treated animals): no lethargy or the inability to eat and drink

Source: US20120003156A1, “METHODS FOR TREATING NEOPLASIA BY INHIBITING LACTATE DEHYDROGENASE AND/OR NICOTINAMIDE PHOSPHORIBOSYLTRANSFERASE” (The Johns Hopkins University, priority 2008, published 2012)
